Among the data in ChEMBL document CHEMBL2074017, “Distinct characteristics of organic cation transporters, OCT1 and OCT2, in the basolateral membrane of renal tubules” (Pharm Res, 2001) are IC50 and Ki values, retold here.

Experiment [1] addresses T1, Solute carrier family 22 member 2 (Rattus norvegicus, UniProt Q9R0W2).
T1 sequence (Q9R0W2 whole entry): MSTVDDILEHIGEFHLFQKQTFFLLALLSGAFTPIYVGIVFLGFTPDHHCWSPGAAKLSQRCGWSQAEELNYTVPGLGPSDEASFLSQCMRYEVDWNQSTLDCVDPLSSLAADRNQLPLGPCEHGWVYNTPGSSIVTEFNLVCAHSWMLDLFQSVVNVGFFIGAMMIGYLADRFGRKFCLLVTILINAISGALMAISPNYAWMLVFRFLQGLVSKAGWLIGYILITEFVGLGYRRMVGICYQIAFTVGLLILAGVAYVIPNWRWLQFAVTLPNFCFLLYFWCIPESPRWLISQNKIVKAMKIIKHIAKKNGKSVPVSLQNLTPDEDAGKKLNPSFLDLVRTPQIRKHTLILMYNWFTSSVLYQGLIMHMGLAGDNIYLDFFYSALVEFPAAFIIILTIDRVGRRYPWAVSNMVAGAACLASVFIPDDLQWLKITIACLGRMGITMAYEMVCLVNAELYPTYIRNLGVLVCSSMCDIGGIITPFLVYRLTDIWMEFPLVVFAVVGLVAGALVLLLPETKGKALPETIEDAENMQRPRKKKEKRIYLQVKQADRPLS
The class given is functional, cell-based, MDCK.

The target in experiment [2] is T2, Solute carrier family 22 member 1 (Rattus norvegicus, UniProt Q63089).
T2 sequence (Q63089 whole entry): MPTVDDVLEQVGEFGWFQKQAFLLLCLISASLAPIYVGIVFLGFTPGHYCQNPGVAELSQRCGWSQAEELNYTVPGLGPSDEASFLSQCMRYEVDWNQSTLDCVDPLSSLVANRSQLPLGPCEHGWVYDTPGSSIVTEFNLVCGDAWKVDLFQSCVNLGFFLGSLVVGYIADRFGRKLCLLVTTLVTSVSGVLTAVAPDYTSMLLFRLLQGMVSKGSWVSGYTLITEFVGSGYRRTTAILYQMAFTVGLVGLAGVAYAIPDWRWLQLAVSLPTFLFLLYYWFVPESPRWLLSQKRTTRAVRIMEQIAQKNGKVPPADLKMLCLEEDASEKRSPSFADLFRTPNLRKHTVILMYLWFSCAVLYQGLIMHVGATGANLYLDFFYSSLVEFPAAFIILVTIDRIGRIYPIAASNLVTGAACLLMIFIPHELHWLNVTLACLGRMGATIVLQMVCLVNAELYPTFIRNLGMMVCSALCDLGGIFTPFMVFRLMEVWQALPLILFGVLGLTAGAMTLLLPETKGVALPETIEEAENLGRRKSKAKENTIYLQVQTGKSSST
In kind it is functional, cell-based, MDCK.

Experiment [3] addresses T1, Solute carrier family 22 member 2. The experiment can be described thus: TP_TRANSPORTER: inhibition of TEA uptake in OCT2-expressing MDCK cells. The class given is functional, cell-based.
For experiment [4], the target named is T2, Solute carrier family 22 member 1. The experiment can be described thus: TP_TRANSPORTER: inhibition of TEA uptake in OCT1-expressing MDCK cells. In kind it is functional, cell-based.

pIC50, pKi: −log10 of the molar value.

What is called pIC50 is the IC50 on a negative log10 scale, so that one unit is a factor of ten. High values mean a small IC50, low ones a large IC50. Take `CCN(CC)CCNC(=O)c1ccc(NC(C)=O)cc1` [ACECAINIDE]: the pIC50 in experiment [1] is 5.30; in experiment [2], 5.06.

One may read the pKi as the Ki on a negative log10 scale, so that one unit is a factor of ten. Turning to `N=C(N)NC(=O)c1nc(Cl)c(N)nc1N` [AMILORIDE], the pKi in experiment [3] was 5.33; in experiment [4], 5.16.

Consider `CN(C)CCC(c1ccc(Cl)cc1)c1ccccn1` (stereo not given) [CHLORPHENIRAMINE], for which the pIC50 in experiment [1] is 4.59; in experiment [2] it was 4.85.

For the compound `C[N+](C)(C)CCO` [CHOLINE], the pIC50 in experiment [1] and in experiment [2] was 2.84 each time.

In the case of `CC(C)N(CCC(C(N)=O)(c1ccccc1)c1ccccn1)C(C)C` (stereo not given) [DISOPYRAMIDE], the pKi was 4.52 in experiment [3] and 4.21 in experiment [4].

Consider `NCCc1ccc(O)c(O)c1` [DOPAMINE], for which the pKi in experiment [3] is 3.46; in experiment [4], 3.22.

As for `CNC[C@H](O)c1ccc(O)c(O)c1` [EPINEPHRINE], the values for the pKi in experiment [3] and in experiment [4] were 2.92 and 2.80, respectively.

On to `NCCc1c[nH]cn1` [HISTAMINE], for which the pKi in experiment [3] was 3.77; in experiment [4] it was 3.85.

For `CN(C)CCCN1c2ccccc2CCc2ccccc21` [IMIPRAMINE], the pIC50 in experiment [1] was 5.00; in experiment [2], 4.80.

In experiment [3], `CCN(CC)CCNC(=O)c1ccc(N)cc1` [PROCAINAMIDE] gave a pKi of 4.44.

For `NCCc1c[nH]c2ccc(O)cc12` [SEROTONIN], the figures for the pKi in experiment [3] and in experiment [4] were 3.62 and 3.41, respectively.

As for `CCCC[N+](CCCC)(CCCC)CCCC` [TETRABUTHYLAMMONIUM], the pIC50 was 5.24 in experiment [1] and 5.10 in experiment [2].

Turning to `C[N+](C)(C)C` [TETRAMETHYLAMMONIUM], the pIC50 in experiment [1] was 2.78.

`CCCCC[N+](CCCCC)(CCCCC)CCCCC` [TETRAPENTYLAMMONIUM]: the pIC50 is 5.77 in experiment [1] and 5.89 in experiment [2].

Take `CCC[N+](CCC)(CCC)CCC` [TETRAPROPYLAMMONIUM]: the pIC50 is 4.41 in experiment [1] and 4.64 in experiment [2].

On to `Cc1ncc(C[n+]2csc(CCO)c2C)c(N)n1` [THIAMINE ION], for which the pKi is 3.19 in experiment [3] and 3.13 in experiment [4].
